Results as given in ChEMBL document CHEMBL4825750, “Evaluation of Elaiophylin extracted from Streptomyces hygroscopicus as a potential inhibitor of the NorA efflux protein in Staphylococcus aureus: An in vitro and in silico approach” (2021).
Values after ≈ are worked out from the molar mass of the structure shown. Active and inactive are the calls of the source. The calls are words filed in the database; no cut-off is given here.

Legend:
[1] = biological target: T1, Quinolone resistance protein NorA (Staphylococcus aureus) (UniProt P0A0J7); experiment: Inhibition of NorA in Staphylococcus aureus SA-1199 assessed as potentiation of norfloxacin-mediated antibacterial activity by measuring norfloxacin MIC incubated for 24 hrs by resazurin assay
T1 sequence (whole entry): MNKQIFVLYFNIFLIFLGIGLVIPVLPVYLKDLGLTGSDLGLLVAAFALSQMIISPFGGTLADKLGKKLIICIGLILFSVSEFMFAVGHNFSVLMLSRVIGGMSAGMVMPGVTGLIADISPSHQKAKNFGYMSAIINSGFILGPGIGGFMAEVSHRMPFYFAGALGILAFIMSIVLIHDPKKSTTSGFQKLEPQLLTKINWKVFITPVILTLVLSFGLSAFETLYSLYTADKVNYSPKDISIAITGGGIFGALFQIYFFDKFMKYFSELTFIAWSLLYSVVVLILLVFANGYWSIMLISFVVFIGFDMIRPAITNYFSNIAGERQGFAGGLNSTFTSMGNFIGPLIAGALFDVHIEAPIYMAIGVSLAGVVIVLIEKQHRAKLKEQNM

[2] = biological target: T1, Quinolone resistance protein NorA (Staphylococcus aureus); experiment: Inhibition of NorA in Staphylococcus aureus SA-1199B assessed as potentiation of norfloxacin-mediated antibacterial activity by measuring norfloxacin MIC incubated for 24 hrs by resazurin assay
[3] = biological target: T1, Quinolone resistance protein NorA (Staphylococcus aureus); experiment: Inhibition of NorA in Staphylococcus aureus SA-1199 assessed as potentiation of ethidium bromide-mediated antibacterial activity by measuring ethidium bromide MIC incubated for 24 hrs by resazurin assay
[4] = biological target: T1, Quinolone resistance protein NorA (Staphylococcus aureus); experiment: Inhibition of NorA in Staphylococcus aureus SA-1199B assessed as potentiation of ethidium bromide-mediated antibacterial activity by measuring ethidium bromide MIC incubated for 24 hrs by resazurin assay
Staphylococcus aureus [5] = experiment: Antibacterial activity against wild-type Staphylococcus aureus SA-1199 incubated for 24 hrs by broth microdilution method; format: functional
Staphylococcus aureus [6] = experiment: Antibacterial activity against Staphylococcus aureus SA-1199B overexpressing NorA incubated for 24 hrs by broth microdilution method; format: functional
Staphylococcus aureus [7] = experiment: Decrease in NorA gene expression in Staphylococcus aureus SA-1199B by RT-qPCR; format: functional
Staphylococcus aureus [8] = experiment: Decrease in NorA gene expression in Staphylococcus aureus SA-1199B in combination with norfloxacin by RT-qPCR; format: functional

| Compound | MIC [1] [µg/mL] | MIC [2] [µg/mL] | MIC [3] [µg/mL] | MIC [4] [µg/mL] | MIC (Staphylococcus aureus [5]) [µg/mL] | MIC (Staphylococcus aureus [6]) [µg/mL] | Activity (Staphylococcus aureus [7]) | Activity (Staphylococcus aureus [8]) |
| --- | --- | --- | --- | --- | --- | --- | --- | --- |
| N#CC(C#N)=NNc1cccc(Cl)c1 | 8 | 8 | 4 | 8 |  |  |  |  |
| CC[C@@H]1[C@@H](C)O[C@@](O)([C@@H](C)[C@H](O)[C@H](C)[C@H]2OC(=O)/C=C/C=C/[C@H](C)[C@@H]([C@@H](C)[C@@H](O)[C@H](C)[C@@]3(O)C[C@@H](O[C@H]4C[C@H](O)[C@H](O)[C@H](C)O4)[C@H](CC)[C@@H](C)O3)OC(=O)/C=C/C=C/[C@@H]2C)C[C@H]1O[C@H]1C[C@H](O)[C@H](O)[C@H](C)O1 | 1 | 1 | 1 | 1 | 0.5 (≈ 0.488 µM) | 0.5 (≈ 0.488 µM) | Active | Active |
| CCn1cc(C(=O)O)c(=O)c2cc(F)c(N3CCNCC3)cc21 [NORFLOXACIN] |  |  |  |  | 64 (≈ 200 µM) | 256 (≈ 802 µM) |  |  |
